In US20240277713A1 (Kadmon Corporation, LLC, priority 2022, published 2024):
Marks after values point to notes of the source that are not given here.

Test system: New Zealand White rabbits
Experiment: Embryo-fetal developmental toxicity study in New Zealand White rabbits (Example 4);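 note: dams given a detailed clinical exam daily GD 6 to 29, about 4 h after dosing, then laparohysterectomy on GD 29 with external, visceral and skeletal fetal examination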

Compound: CC(C)NC(=O)COc1cccc(-c2nc(Nc3ccc4[nH]ncc4c3)c3ccccc3n2)c1 [belumosudil, 2-{3-[4-(1H-indazol-5-ylamino)-2-quinazolinyl]phenoxy}-N-(propan-2-yl) acetamide]
- Fetal External Malformation: Short Tail, No. Fetuses (incidence) (50 mg base/kg/day): 0 (0.0)
- Fetal External Malformation: Short Tail, No. Litters (incidence) (50 mg base/kg/day): 0 (0.0)
- Fetal External Malformations, No. Fetuses (incidence) (50 mg base/kg/day): 1 (0.5)
- Fetal External Malformations, No. Litters (incidence) (50 mg base/kg/day): 1 (4.5)
- Fetal Skeletal Malformations, No. Fetuses (incidence) (50 mg base/kg/day): 8 (4.3)
- Fetal Skeletal Malformations, No. Litters (incidence) (50 mg base/kg/day): 6 (27.3)
- Fetal Visceral Variations, No. Fetuses (incidence) (50 mg base/kg/day): 6 (3.2)
- Fetal Visceral Variations, No. Litters (incidence) (50 mg base/kg/day): 4 (18.2)
- Maternal Food Consumption GD 0-29 (50 mg base/kg/day): 141.1
- Maternal Food Consumption GD 6-10 (50 mg base/kg/day): 149.4
- Maternal Food Consumption GD 6-19 (50 mg base/kg/day): 142.7
- Maternal Food Consumption GD 6-19, % Difference From Control (50 mg base/kg/day): −8.8%
- Maternal Food Consumption GD 19-29 (50 mg base/kg/day): 136.0
- Mean Fetal Body Weight Females (50 mg base/kg/day): 40.25 g
- Mean Fetal Body Weight Genders Combined (50 mg base/kg/day): 40.97 g
- Mean Fetal Body Weight Males (50 mg base/kg/day): 41.64 g
- Mean Live Litter Size (50 mg base/kg/day): 8.5
- Mean Number of Early Resorptions (50 mg base/kg/day): 0.2
- Mean Number of Resorptions (Combined) (50 mg base/kg/day): 0.2
- Mean Postimplantation Loss (50 mg base/kg/day): 2.42 %/Litter
- Number Litters with Viable Fetuses GD29 (50 mg base/kg/day): 22
- Number with All Resorptions GD29 (50 mg base/kg/day): 0
- Number Aborted (50 mg base/kg/day, 23 females): 0
- Number Litters with Viable Fetuses GD29 (50 mg base/kg/day, 23 females): 22
- Number Not Pregnant (50 mg base/kg/day, 23 females): 1
- Number with All Resorptions GD29 (50 mg base/kg/day, 23 females): 0
- Activity decreased, times observed/animals affected (50 mg base/kg/day, GD 0-29): 0/0
- Feces few/absent, times observed/animals affected (50 mg base/kg/day, GD 0-29): 0/0
- Hair discolored, Brown, Anogenital region, times observed/animals affected (50 mg base/kg/day, GD 0-29): 0/0
- Hair discolored, Brown, Ear/left, times observed/animals affected (50 mg base/kg/day, GD 0-29): 12/1
- Hair discolored, Brown, Ear/right, times observed/animals affected (50 mg base/kg/day, GD 0-29): 12/1
- Hair discolored, Brown, Face, times observed/animals affected (50 mg base/kg/day, GD 0-29): 24/3
- Hair discolored, Brown, Hind limb/left, times observed/animals affected (50 mg base/kg/day, GD 0-29): 3/1
- Hair discolored, Red, Anogenital region, times observed/animals affected (50 mg base/kg/day, GD 0-29): 0/0
- Hair discolored, Red, Face, times observed/animals affected (50 mg base/kg/day, GD 0-29): 0/0
- Hair discolored, Red, Forelimb/left, times observed/animals affected (50 mg base/kg/day, GD 0-29): 1/1
- Hair discolored, Red, Thoracic region, times observed/animals affected (50 mg base/kg/day, GD 0-29): 1/1
- Hair discolored, Yellow, Ear/right, times observed/animals affected (50 mg base/kg/day, GD 0-29): 0/0
- Hair discolored, Yellow, Face, times observed/animals affected (50 mg base/kg/day, GD 0-29): 27/2
- Hair sparse, Anogenital region, times observed/animals affected (50 mg base/kg/day, GD 0-29): 0/0
- Hair sparse, Axillary region/left, times observed/animals affected (50 mg base/kg/day, GD 0-29): 0/0
- Hair sparse, Axillary region/right, times observed/animals affected (50 mg base/kg/day, GD 0-29): 0/0
- Hair sparse, Cervical region, times observed/animals affected (50 mg base/kg/day, GD 0-29): 0/0
- Hair sparse, Ear/left, times observed/animals affected (50 mg base/kg/day, GD 0-29): 0/0
- Hair sparse, Ear/right, times observed/animals affected (50 mg base/kg/day, GD 0-29): 0/0
- Hair sparse, Forefoot/left, times observed/animals affected (50 mg base/kg/day, GD 0-29): 5/1
- Hair sparse, Forefoot/right, times observed/animals affected (50 mg base/kg/day, GD 0-29): 4/1
- Hair sparse, Forelimb/left, times observed/animals affected (50 mg base/kg/day, GD 0-29): 5/1
- Hair sparse, Hind limb/left, times observed/animals affected (50 mg base/kg/day, GD 0-29): 5/1
- Hair sparse, Inguinal region/right, times observed/animals affected (50 mg base/kg/day, GD 0-29): 0/0
- Hair sparse, Shoulder/left, times observed/animals affected (50 mg base/kg/day, GD 0-29): 0/0
- Hair sparse, Thoracic region, times observed/animals affected (50 mg base/kg/day, GD 0-29): 0/0
- Hair sparse, Ventral surface, times observed/animals affected (50 mg base/kg/day, GD 0-29): 0/0
- Material in pan/bedding, Red, times observed/animals affected (50 mg base/kg/day, GD 0-29): 0/0
- Nail missing, Forefoot/left, times observed/animals affected (50 mg base/kg/day, GD 0-29): 1/1
- Scabbed area, Ear/left, times observed/animals affected (50 mg base/kg/day, GD 0-29): 0/0
- Scabbed area, Nose/muzzle, times observed/animals affected (50 mg base/kg/day, GD 0-29): 0/0
- Skin discolored, Pale, Entire body, times observed/animals affected (50 mg base/kg/day, GD 0-29): 0/0
- Swelling, Nose/muzzle, times observed/animals affected (50 mg base/kg/day, GD 0-29): 0/0
- Swelling, Vulva, times observed/animals affected (50 mg base/kg/day, GD 0-29): 3/1
- Thin, times observed/animals affected (50 mg base/kg/day, GD 0-29): 0/0
- Fetal External Malformation: Short Tail, No. Fetuses (incidence) (125 mg base/kg/day): 0 (0.0)
- Fetal External Malformation: Short Tail, No. Litters (incidence) (125 mg base/kg/day): 0 (0.0)
- Fetal External Malformations, No. Fetuses (incidence) (125 mg base/kg/day): 0 (0.0)
- Fetal External Malformations, No. Litters (incidence) (125 mg base/kg/day): 0 (0.0)
- Fetal Skeletal Malformations, No. Fetuses (incidence) (125 mg base/kg/day): 10 (6.6)
- Fetal Skeletal Malformations, No. Litters (incidence) (125 mg base/kg/day): 6 (31.6)
- Fetal Visceral Variations, No. Fetuses (incidence) (125 mg base/kg/day): 11 (7.2)
- Fetal Visceral Variations, No. Litters (incidence) (125 mg base/kg/day): 7 (36.8)
- Maternal Body Weight Change GD 0-29, % Difference From Control (125 mg base/kg/day): −8.6%
- Maternal Body Weight GD 19, % Difference From Control (125 mg base/kg/day): −5.1%
- Maternal Food Consumption GD 0-29 (125 mg base/kg/day): 128.8
- Maternal Food Consumption GD 0-29, % Difference From Control (125 mg base/kg/day): −11.6%
- Maternal Food Consumption GD 6-10 (125 mg base/kg/day): 117.9^b
- Maternal Food Consumption GD 6-19 (125 mg base/kg/day): 103.1
- Maternal Food Consumption GD 6-19, % Difference From Control (125 mg base/kg/day): −34.1%
- Maternal Food Consumption GD 19-29 (125 mg base/kg/day): 149.9^a
- Mean Fetal Body Weight Females (125 mg base/kg/day): 41.14 g
- Mean Fetal Body Weight Genders Combined (125 mg base/kg/day): 41.09 g
- Mean Fetal Body Weight Males (125 mg base/kg/day): 41.61 g
- Mean Live Litter Size (125 mg base/kg/day): 8.0
- Mean Number of Early Resorptions (125 mg base/kg/day): 0.5
- Mean Number of Resorptions (Combined) (125 mg base/kg/day): 0.7
- Mean Postimplantation Loss (125 mg base/kg/day): 7.42 %/Litter
- Number Litters with Viable Fetuses GD29 (125 mg base/kg/day): 19
- Number with All Resorptions GD29 (125 mg base/kg/day): 0
- ureter malpositioned, litter incidence (125 mg base/kg/day): 21.1%
- Number Aborted (125 mg base/kg/day, 23 females): 1
- Number Litters with Viable Fetuses GD29 (125 mg base/kg/day, 23 females): 19
- Number Not Pregnant (125 mg base/kg/day, 23 females): 3
- Number with All Resorptions GD29 (125 mg base/kg/day, 23 females): 0
- Activity decreased, times observed/animals affected (125 mg base/kg/day, GD 0-29): 0/0
- Feces few/absent, times observed/animals affected (125 mg base/kg/day, GD 0-29): 0/0
- Hair discolored, Brown, Anogenital region, times observed/animals affected (125 mg base/kg/day, GD 0-29): 7/1
- Hair discolored, Brown, Ear/left, times observed/animals affected (125 mg base/kg/day, GD 0-29): 0/0
- Hair discolored, Brown, Ear/right, times observed/animals affected (125 mg base/kg/day, GD 0-29): 0/0
- Hair discolored, Brown, Face, times observed/animals affected (125 mg base/kg/day, GD 0-29): 0/0
- Hair discolored, Brown, Hind limb/left, times observed/animals affected (125 mg base/kg/day, GD 0-29): 0/0
- Hair discolored, Red, Anogenital region, times observed/animals affected (125 mg base/kg/day, GD 0-29): 1/1
- Hair discolored, Red, Face, times observed/animals affected (125 mg base/kg/day, GD 0-29): 2/1
- Hair discolored, Red, Forelimb/left, times observed/animals affected (125 mg base/kg/day, GD 0-29): 0/0
- Hair discolored, Red, Thoracic region, times observed/animals affected (125 mg base/kg/day, GD 0-29): 0/0
- Hair discolored, Yellow, Ear/right, times observed/animals affected (125 mg base/kg/day, GD 0-29): 0/0
- Hair discolored, Yellow, Face, times observed/animals affected (125 mg base/kg/day, GD 0-29): 10/1
- Hair sparse, Anogenital region, times observed/animals affected (125 mg base/kg/day, GD 0-29): 15/2
- Hair sparse, Axillary region/left, times observed/animals affected (125 mg base/kg/day, GD 0-29): 2/1
- Hair sparse, Axillary region/right, times observed/animals affected (125 mg base/kg/day, GD 0-29): 2/1
- Hair sparse, Cervical region, times observed/animals affected (125 mg base/kg/day, GD 0-29): 1/1
- Hair sparse, Ear/left, times observed/animals affected (125 mg base/kg/day, GD 0-29): 0/0
- Hair sparse, Ear/right, times observed/animals affected (125 mg base/kg/day, GD 0-29): 0/0
- Hair sparse, Forefoot/left, times observed/animals affected (125 mg base/kg/day, GD 0-29): 0/0
